These are literature values, as cited in patent US9469654B2, “Bicyclic oxa-lactam kinase inhibitors” (PORTOLA PHARMACEUTICALS, INC., priority 2012, dated 2016).

Data set [1] has as its system lymphoma cell lines and primary human lymphoma samples.
For data set [2], the system named is refractory NHL and chronic lymphocytic leukemia. As to conditions: phase II clinical trial.

Regarding `COc1cc(Nc2ncc(F)c(Nc3ccc4c(n3)NC(=O)C(C)(C)O4)n2)cc(OC)c1OC` [Example R406], the “activity against JAK kinases” value in the data set on JAK kinases is “active against”. For the same molecule, in the data set with Src kinsase, the “activity against Src kinase” value was “not against”. In addition, in data set [1] (lymphoma cell lines), the apoptosis entry is “resulting in apoptosis”. The “effect on BCR signaling” value in data set [1] (lymphoma cell lines and primary human lymphoma samples) is listed as “attenuates BCR signaling”. The clinical outcome in data set [2] is recorded as “favorable results”.
